Data reported in patent US12543736B2, “Herbicidal compositions comprising mesotrione” (BASF SE, priority 2024, dated 2026).

Columns and labels:
Format in all cases: in vivo
Echinochloa crus-galli = assay: Example 3 post-emergence field trial, ECHCG; conditions: height 15-20 cm
Description: (§1) In the examples below, using the method of S. R. Colby (1967) “Calculating synergistic and antagonistic responses of herbicide combinations”, Weeds 15, p. 22ff., the value E, which is expected if the activity of the individual active compounds is only additive, was calculated: [formula] • where • X=percent activity using active herbicide A at an application rate a; • Y=percent activity using active herbicide B (e.g. mesotrione) at an application rate b; • E=expected activity (in %) by A+B at application rates a+b. If the value found experimentally is higher than the value E calculated according to Colby, a synergistic effect is present. Evaluation was carried out using a scale from 0 to 100. 100 means no emergence of the plants, or complete destruction of at least the above-ground parts, and 0 means no damage or normal course of growth. A good herbicidal activity is given at values of at least 70, and very good herbicidal activity is given at values of at least 85. Post-Emergence Application of Herbicide A-1 (A-1) and Mesotrione (B) in Field Trials Herbicide A-1 (342 g/l) and mesotrione (100 g/l) were, together with addition of 0.5 v/v % MSO (methylated sed oil) as adjuvant, formulated in water as distribution medium (water volume 200 l/ha) and sprayed with commercial flat fan nozzles.

Hordeum vulgare = assay: Example 3 post-emergence field trial, HORVX; conditions: height 20-25 cm
Description: as §1

Panicum dichotomiflorum = assay: Example 1 post-emergence greenhouse trial, PANDI; conditions: growth stage 13, 21 DAT, g ai/ha: A-1 4, B 62.5
Description: In the examples below, using the method of S. R. Colby (1967) “Calculating synergistic and antagonistic responses of herbicide combinations”, Weeds 15, p. 22ff., the value E, which is expected if the activity of the individual active compounds is only additive, was calculated: [formula] • where • X=percent activity using active herbicide A at an application rate a; • Y=percent activity using active herbicide B (e.g. mesotrione) at an application rate b; • E=expected activity (in %) by A+B at application rates a+b. If the value found experimentally is higher than the value E calculated according to Colby, a synergistic effect is present. The culture containers used were plastic pots containing loamy sand with approximately 3.0% of humus as substrate. The seeds of the test plants were sown separately for each species. For the post-emergence treatment, the test plants were grown to a plant height of from 3 to 15 cm, depending on the plant habit, and only then treated with the active compounds which had been suspended or emulsified in water. To this end, the test plants were either sown directly, and grown in the same containers, or they were first grown separately as seedlings and transplanted into the test containers a few days prior to treatment. […] During this time, the plants were tended and their response to the individual treatments was evaluated. […]

Kochia scoparia = assay: Example 1 post-emergence greenhouse trial, KCHSC; conditions: growth stage 19, 21 DAT
Description: In the examples below, using the method of S. R. Colby (1967) “Calculating synergistic and antagonistic responses of herbicide combinations”, Weeds 15, p. 22ff., the value E, which is expected if the activity of the individual active compounds is only additive, was calculated: [formula] • where • X=percent activity using active herbicide A at an application rate a; • Y=percent activity using active herbicide B (e.g. mesotrione) at an application rate b; • E=expected activity (in %) by A+B at application rates a+b. If the value found experimentally is higher than the value E calculated according to Colby, a synergistic effect is present. The culture containers used were plastic pots containing loamy sand with approximately 3.0% of humus as substrate. The seeds of the test plants were sown separately for each species. For the post-emergence treatment, the test plants were grown to a plant height of from 3 to 15 cm, depending on the plant habit, and only then treated with the active compounds which had been suspended or emulsified in water. To this end, the test plants were either sown directly, and grown in the same containers, or they were first grown separately as seedlings and transplanted into the test containers a few days prior to treatment. Depending on the species, the plants were kept at 10-25° C. and 20-35° C., respectively. The test period extended over 2 to 4 weeks. During this time, the plants were tended and their response to the individual treatments was evaluated. Evaluation was carried out using a scale from 0 to 100. 100 means no emergence of the plants, or complete destruction of at least the above-ground parts, and 0 means no damage or normal course of growth. A good herbicidal activity is given at values of at least 70, and very good herbicidal activity is given at values of at least 85. Post-Emergence Application of Herbicide A-1 (A-1) and Mesotrione (B) in Greenhouse Trials Herbicide A-1 (50 g/l) and mesotrione (480 g/l) were, together with addition of 1 v/v % MSO (methylated sed oil) as adjuvant, formulated in water as distribution medium (water volume 200 l/ha) and sprayed with commercial flat fan nozzles.

Zea mays = assay: Example 3 post-emergence field trial, ZEAMX
Description: as §1

[1] = 7 DAT, g ai/ha: A-1 12.5, B 105
[2] = 7 DAT, g ai/ha: A-1 12.5, B 210
[3] = 21 DAT, g ai/ha: A-1 12.5, B 105
[4] = 28 DAT, g ai/ha: A-1 12.5, B 105
[5] = 21 DAT, g ai/ha: A-1 12.5, B 210
[6] = 28 DAT, g ai/ha: A-1 12.5, B 210
[7] = height 27-33 cm, 7 DAT, g ai/ha: A-1 12.5, B 105
[8] = height 27-33 cm, 7 DAT, g ai/ha: A-1 12.5, B 210
[9] = height 27-33 cm, 7 DAT, g ai/ha: A-1 18, B 105
[10] = height 27-33 cm, 7 DAT, g ai/ha: A-1 18, B 210
[11] = height 27-33 cm, 21 DAT, g ai/ha: A-1 12.5, B 105
[12] = height 27-33 cm, 21 DAT, g ai/ha: A-1 12.5, B 210
[13] = height 27-33 cm, 21 DAT, g ai/ha: A-1 18, B 105
[14] = height 27-33 cm, 21 DAT, g ai/ha: A-1 18, B 210
[15] = height 27-33 cm, 28 DAT, g ai/ha: A-1 12.5, B 105
[16] = height 27-33 cm, 28 DAT, g ai/ha: A-1 12.5, B 210
[17] = height 27-33 cm, 28 DAT, g ai/ha: A-1 18, B 105
[18] = height 27-33 cm, 28 DAT, g ai/ha: A-1 18, B 210
[19] = height 40-60 cm, 7 DAT, g ai/ha: A-1 12.5, B 105
[20] = height 40-60 cm, 7 DAT, g ai/ha: A-1 12.5, B 210
[21] = height 40-60 cm, 7 DAT, g ai/ha: A-1 18, B 105
[22] = height 40-60 cm, 7 DAT, g ai/ha: A-1 18, B 210

Structure (SMILES): CCOC(=O)COc1ccccc1Oc1nc(-n2c(=O)cc(C(F)(F)F)n(C)c2=O)c(F)cc1Cl [A-1, ethyl 2-[2-[[3-chloro-5-fluoro-6-[3-methyl-2,6-dioxo-4-(trifluoromethyl)pyrimidin-1-yl]-2-pyridyl]oxy]phenoxy]acetate]
- % herbicidal activity (Echinochloa crus-galli; [1]): 30%
- % herbicidal activity (Echinochloa crus-galli; [2]): 20%
- % herbicidal activity (Echinochloa crus-galli; 7 DAT, g ai/ha: A-1 18, B 105): 30%
- % herbicidal activity (Echinochloa crus-galli; 7 DAT, g ai/ha: A-1 18, B 210): 30%
- % herbicidal activity (Echinochloa crus-galli; [3]): 30%
- % herbicidal activity (Echinochloa crus-galli; 21 DAT, g ai/ha: A-1 18, B 105): 30%
- % herbicidal activity (Echinochloa crus-galli; [4]): 20%
- % herbicidal activity (Echinochloa crus-galli; 28 DAT, g ai/ha: A-1 18, B 105): 30%
- % herbicidal activity A-1 (Hordeum vulgare; 42 DAT, A-1 12.5 g ai/ha): 95%
- % herbicidal activity (Hordeum vulgare; [1]): 70%
- % herbicidal activity (Hordeum vulgare; [2]): 60%
- % herbicidal activity (Hordeum vulgare; 7 DAT, g ai/ha: A-1 18, B 105): 80%
- % herbicidal activity (Hordeum vulgare; 7 DAT, g ai/ha: A-1 18, B 210): 70%
- % herbicidal activity (Hordeum vulgare; [3]): 70%
- % herbicidal activity (Hordeum vulgare; [5]): 60%
- % herbicidal activity (Hordeum vulgare; 21 DAT, g ai/ha: A-1 18, B 105): 85%
- % herbicidal activity (Hordeum vulgare; 21 DAT, g ai/ha: A-1 18, B 210): 70%
- % herbicidal activity (Hordeum vulgare; [4]): 70%
- % herbicidal activity (Hordeum vulgare; [6]): 70%
- % herbicidal activity (Hordeum vulgare; 28 DAT, g ai/ha: A-1 18, B 105): 90%
- % herbicidal activity (Hordeum vulgare; 28 DAT, g ai/ha: A-1 18, B 210): 70%
- % herbicidal activity (Panicum dichotomiflorum): 95%
- % herbicidal activity (Kochia scoparia; g ai/ha: A-1 0.5, B 62.5): 65%
- % herbicidal activity (Kochia scoparia; g ai/ha: A-1 1, B 62.5): 65%
- % herbicidal activity (Zea mays; [7]): 30%
- % herbicidal activity (Zea mays; [8]): 45%
- % herbicidal activity (Zea mays; [9]): 40%
- % herbicidal activity (Zea mays; [10]): 55%
- % herbicidal activity (Zea mays; [11]): 80%
- % herbicidal activity (Zea mays; [12]): 85%
- % herbicidal activity (Zea mays; [13]): 90%
- % herbicidal activity (Zea mays; [14]): 80%
- % herbicidal activity (Zea mays; [15]): 80%
- % herbicidal activity (Zea mays; [16]): 80%
- % herbicidal activity (Zea mays; [17]): 88%
- % herbicidal activity (Zea mays; [18]): 85%
- % herbicidal activity (Zea mays; [19]): 85%
- % herbicidal activity (Zea mays; [20]): 85%
- % herbicidal activity (Zea mays; [21]): 85%
- % herbicidal activity (Zea mays; [22]): 85%

Structure (SMILES): CS(=O)(=O)c1ccc(C(=O)C2C(=O)CCCC2=O)c([N+](=O)[O-])c1 [B, mesotrione]
- % herbicidal activity (Echinochloa crus-galli; [1]): 50%
- % herbicidal activity (Echinochloa crus-galli; [2]): 50%
- % herbicidal activity (Echinochloa crus-galli; 7 DAT, g ai/ha: A-1 18, B 105): 50%
- % herbicidal activity (Echinochloa crus-galli; 7 DAT, g ai/ha: A-1 18, B 210): 50%
- % herbicidal activity (Echinochloa crus-galli; [3]): 60%
- % herbicidal activity (Echinochloa crus-galli; 21 DAT, g ai/ha: A-1 18, B 105): 60%
- % herbicidal activity (Echinochloa crus-galli; [4]): 50%
- % herbicidal activity (Echinochloa crus-galli; 28 DAT, g ai/ha: A-1 18, B 105): 50%
- % herbicidal activity B (Hordeum vulgare; 42 DAT, B 210 g ai/ha): 0%
- % herbicidal activity (Hordeum vulgare; [1]): 20%
- % herbicidal activity (Hordeum vulgare; [2]): 0%
- % herbicidal activity (Hordeum vulgare; 7 DAT, g ai/ha: A-1 18, B 105): 20%
- % herbicidal activity (Hordeum vulgare; 7 DAT, g ai/ha: A-1 18, B 210): 0%
- % herbicidal activity (Hordeum vulgare; [3]): 20%
- % herbicidal activity (Hordeum vulgare; [5]): 0%
- % herbicidal activity (Hordeum vulgare; 21 DAT, g ai/ha: A-1 18, B 105): 20%
- % herbicidal activity (Hordeum vulgare; 21 DAT, g ai/ha: A-1 18, B 210): 0%
- % herbicidal activity (Hordeum vulgare; [4]): 20%
- % herbicidal activity (Hordeum vulgare; [6]): 20%
- % herbicidal activity (Hordeum vulgare; 28 DAT, g ai/ha: A-1 18, B 105): 20%
- % herbicidal activity (Hordeum vulgare; 28 DAT, g ai/ha: A-1 18, B 210): 20%
- % herbicidal activity (Panicum dichotomiflorum): 0%
- % herbicidal activity (Kochia scoparia; g ai/ha: A-1 0.5, B 62.5): 75%
- % herbicidal activity (Kochia scoparia; g ai/ha: A-1 1, B 62.5): 75%
- % herbicidal activity (Zea mays; [7]): 0%
- % herbicidal activity (Zea mays; [8]): 0%
- % herbicidal activity (Zea mays; [9]): 0%
- % herbicidal activity (Zea mays; [10]): 0%
- % herbicidal activity (Zea mays; [11]): 0%
- % herbicidal activity (Zea mays; [12]): 0%
- % herbicidal activity (Zea mays; [13]): 0%
- % herbicidal activity (Zea mays; [14]): 0%
- % herbicidal activity (Zea mays; [15]): 0%
- % herbicidal activity (Zea mays; [16]): 0%
- % herbicidal activity (Zea mays; [17]): 0%
- % herbicidal activity (Zea mays; [18]): 0%
- % herbicidal activity (Zea mays; [19]): 5%
- % herbicidal activity (Zea mays; [20]): 5%
- % herbicidal activity (Zea mays; [21]): 5%
- % herbicidal activity (Zea mays; [22]): 5%
